Read-outs that look alike come from different tables or passages of the source.
How the values were obtained:
[1] = MTT assay: HT22 cell viability with compound alone; type: cell-based, mouse; conditions: mouse, HT22 cells; HT22 cell viability after 24 h of treatment with 5 μM compound, no Aβ
Procedure, shortened: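 HT22 cells were seeded at 5,000 per well 24 h before exposure to test compound solution (5 µM) for 24 h at 37 °C. MTT was added for 2 h at 37 °C, then 10% Triton X-100/isopropanol/0.1 M HCl for 2 h, with OD read at 560 nm. Viability was normalised to vehicle (5 µM DMSO) as […].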

[2] = test system: acute AD model mice (Aβ1-42 ICV injected ICR mice); assay: Y-maze spontaneous alternation test in acute AD model mice; type: in vivo, mouse; conditions: 30 mg/kg daily, 6 days; for Recovery of Y-maze spontaneous alternations: i.p.
Experimental: The acute AD mice model was prepared by administration of Aβ1-42 solution (10% DMSO/90% PBS) to male ICR mice (6 weeks old, 30 − 33 g) via intracerebroventricular (ICV) injection (Aβ1-42 dose: 500 pmol/mouse) as described previously. The wild type mice (B6C3F1) and double APP/PS1 transgenic mice (Tg AD mice model; APPswe/PSEN1dE9) were purchased from Jackson Laboratory (Bar Harbour, ME, USA). The Tg AD model mice were 11 months old at the beginning of the behaviour test, and were housed for 1 month in a room under controlled temperature and fed ad libitum. The behaviour tests were conducted during daytime in air-controlled and soundproof experiment room. The animal experiments were abided by the guidelines of the Institutional Animal Care and Use Committee of Korea Institute of Science and Technology.
To the mice of the acute AD model (n = 7 per group), each test compound (test compound in 20% cyclodextrin, 30 mg/kg) was […] injected daily for 6 days. The Y-maze spontaneous alternation test was performed 1 day after the administration of each test compound. The Y maze was made of three equally spaced black plastic arms (40 L × 10 W × 12 H cm) positioned at an equal angle. Each mouse was placed at the end of one arm and allowed to move freely through the maze for 8 min, and the sequence of arm entries was recorded. The arm entry of the mouse was counted when the all four limbs were within an arm. A set of entries into all three arms is considered as a spontaneous alternation. The spontaneous alternation (%) was calculated by the following equation: Spontaneous alternation (%)=100x[number of alternations/(total number of arm entries – 2)]
We evaluated in vivo activity of 7 and 14 in an acute AD mouse model. The acute AD model mice were generated by the administration of Aβ1-42 peptide (500 pmol) according to the previously reported method, and each compound (30 mg/kg daily) was administered intraperitoneally for 6 days. Piracetam (30 mg/kg daily) was also administered in parallel for comparison. The Y-maze spontaneous alternation tests were performed to measure the recovery of learning and memory deficit in acute AD model mice[38]^,[39]. […] We believe that the treatment of 7 was beneficial for ameliorating Aβ-induced cognitive impairments.

recombinant human TSPO = biological target: T1, recombinant human TSPO (Homo sapiens, UniProt P30536); assay: Surface plasmon resonance (SPR) binding affinity; conditions: mean ± SD of three measurements
T1 construct: purchased Origene Technologies, Inc. TP320107
Experimental: To determine the binding affinities of the selected compounds, the KD values were measured by using Biacore T200 optical biosensor system (GE Healthcare). The recombinant human TSPO (18 kDa, Origene Technologies, Inc., No.: TP320107) was covalently immobilised on a CM5 chip (GE Healthcare) at 25 °C via standard amine-coupling protocols in 10 mM sodium acetate (pH 4.5) at a flow rate of 10 µL/min for 1500s (immobilised protein densities: 5,000–6,000 response unit (RU)). The tested compounds were initially prepared at 10 mM in DMSO, and serially diluted in PBS-P buffer (10 mM NaH2PO4, 150 mM NaCl, pH 7.4) to 1% DMSO. For each tested compound, the kinetic values were measured using a five-point concentration series, 0.001, 0.01, 0.5, 1, and 5 µM. Multiple blank samples of running buffer alone (0 µM of tested compounds) were incorporated in every measurement. The filtered PBS-P buffer containing 1% DMSO was used as a running buffer during the SPR experiments. To measure the kinetic values, a series of different concentrations were injected over the immobilised chip at a flow rate of 50 µL/min (contact time: 120 s, dissociation time: 300 s), followed by the regeneration process at a flow rate of 50 µL/min (contact time: 120 s, stabilisation time: 10 s). The KD value of each compound was calculated by Biacore T200 evaluation software (GE Healthcare) after the standard solvent correction process.

[3] = Pharmacokinetic study in SD male rats; type: in vivo, rat; conditions: 10 mg/kg; for AUC(0-t) / clearance / AUC(0-inf) / Vd / bioavailability / Cmax / Tmax / half-life: Sprague-Dawley, rat, plasma; for bioavailability: oral vs intravenous; for half-life: male
Experimental: Each test compound at a dose of 10 mg/kg was administered intravenously or orally to male Sprague-Dawley (SD) rats. Blood samples collected via carotid artery at several time points after administration of each compound were stored at −70 °C until LC-MS/MS analysis. To determine the plasma concentration of each compound, a 0.1 µg/mL of internal standard in 100 µL of MeCN was added to 50 µL of plasma samples. After vortex-shaking and centrifugation at 10,000 rpm for 10 min, 5 µL of the supernatant was analysed by LC-MS/MS [HP1100® HPLC system (Agilent, Santa Clara, CA) combined with API3200® triple-quadrupole mass spectrometer (Applied Biosystems-SCIEX, Concord, Canada)]. The HPLC chromatographic separation was performed on a reversed-phase Xterra® C18 column (Waters Corporation, Milford, MA) using gradient elution consisted of 0.1% formic acid and 0.1% formic acid in 90% MeCN at a flow rate of 0.3 ml/min.

[4] = intravenous, n = 3, read-out: Vss
[5] = n = 3, read-out: F (bioavailability)
[6] = iv, intravenous, n = 3, read-out: Terminal half-life
[7] = po, oral, n = 3, read-out: Terminal half-life

T1 sequence (P30536 whole entry): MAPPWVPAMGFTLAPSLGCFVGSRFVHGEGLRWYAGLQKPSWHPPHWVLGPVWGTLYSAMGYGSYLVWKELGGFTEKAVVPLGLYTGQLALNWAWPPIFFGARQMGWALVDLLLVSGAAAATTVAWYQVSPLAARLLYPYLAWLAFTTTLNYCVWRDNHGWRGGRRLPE

SMILES: CCOc1ccc(-n2c(SCC(=O)NCc3ccccc3)nc3sc4c(c3c2=O)CCN(C)C4)cc1 [Compound 49]
- viability at 24 h, 5 µM [1]: 99%
- Y-maze activity in acute AD model (in words) [2]: did not show significant activity

SMILES: CCOc1ccc(-n2c(SCC(=O)N(C)Cc3ccccc3)nc3sc4c(c3c2=O)CCN(C)C4)cc1 [Compound 50]
- viability at 24 h, 5 µM [1]: 95%
- Y-maze activity in acute AD model (in words) [2]: did not show significant activity

SMILES: CCOc1ccc(-n2c(SCC(=O)NCc3ccccc3)nc3sc4c(c3c2=O)CCN(C(C)=O)C4)cc1 [Compound 31]
- viability at 24 h, 5 µM [1]: 109%
- Recovery of Y-maze spontaneous alternations [2]: 107%
- Kd (recombinant human TSPO): 1250 ± 400 nM
- AUC(0-t) ([3]; intravenous, n = 3): 4560 ng·h/mL
- clearance ([3]; intravenous, n = 3): 32.5 ± 10.1 mL/min/kg
- AUC(0-inf) ([3]; intravenous, n = 3, mean ± SD): 5510 ng·h/mL
- Vd [3, 4]: 7.74 ± 1.11 L/kg
- bioavailability [3, 5]: 8%
- AUC(0-t) ([3]; oral, n = 3): 194 ng·h/mL
- Cmax ([3]; oral, n = 3): 40 ± 20 ng/mL
- AUC(0-inf) ([3]; oral, n = 3, mean ± SD): 443 ng·h/mL
- Tmax ([3]; oral, n = 3, range in brackets): 0.8 h
- half-life [3, 6]: 2.9 ± 0.54 h
- half-life [3, 7]: 7.47 ± 0.46 h

SMILES: CCOc1ccc(-n2c(SCC(=O)N3CCN(c4ccccc4)CC3)nc3sc4c(c3c2=O)CCN(C(C)=O)C4)cc1 [Compound 44]
- viability at 24 h, 5 µM [1]: 97%
- Recovery of Y-maze spontaneous alternations [2]: 98%
- Kd (recombinant human TSPO): 2740 ± 660 nM
- AUC(0-t) ([3]; intravenous, n = 3): 17600 ng·h/mL
- clearance ([3]; intravenous, n = 3): 9.43 ± 1.05 mL/min/kg
- AUC(0-inf) ([3]; intravenous, n = 3, mean ± SD): 17800 ng·h/mL
- Vd [3, 4]: 0.785 ± 0.0396 L/kg
- bioavailability [3, 5]: 78.4%
- AUC(0-t) ([3]; oral, n = 3): 8120 ng·h/mL
- Cmax ([3]; oral, n = 3): 2110 ± 910 ng/mL
- AUC(0-inf) ([3]; oral, n = 3, mean ± SD): 10200 ng·h/mL
- Tmax ([3]; oral, n = 3, range in brackets): 1.2 h
- Terminal half-life ([3]; intravenous, n = 3): 1.336 ± 0.156 h
- half-life [3, 6]: 1.33 h
- half-life [3, 7]: 3.32 ± 2.24 h

SMILES: CCOc1ccc(-n2c(SCC(=O)Nc3ccc(OC)c(OC)c3)nc3sc4c(c3c2=O)CCN(C(C)=O)C4)cc1 [Compound 7]
- viability at 24 h, 5 µM [1]: 95%
- Recovery of Y-maze spontaneous alternations [2]: 76%
- Kd (recombinant human TSPO): 630 ± 330 nM
- AUC(0-inf) ([3]; intravenous, n = 5, Table S3): 6030 ng·h/mL
- AUC(0-t) ([3]; intravenous, n = 5, Table S3): 6000 ng·h/mL
- clearance ([3]; intravenous, n = 5, Table S3): 28.9 ± 7.09 mL/min/kg
- Vd ([3]; intravenous, n = 5, Table S3, read-out: Vss): 1.74 L/kg
- bioavailability ([3]; n = 5, Table S3, read-out: F (bioavailability)): 37.3%
- AUC(0-inf) ([3]; oral, n = 5, Table S3): 2250 ng·h/mL
- AUC(0-t) ([3]; oral, n = 5, Table S3): 1930 ng·h/mL
- Tmax ([3]; oral, n = 5, Table S3): 2.2 h
- half-life ([3]; iv, intravenous, n = 5, Table S3, read-out: Terminal half-life): 1.04 ± 0.0785 h
- half-life ([3]; po, oral, n = 5, Table S3, read-out: Terminal half-life): 2.35 ± 1.04 h

SMILES: CCOc1ccc(-n2c(SCC(=O)NC3CCN(C)CC3)nc3sc4c(c3c2=O)CCN(C(C)=O)C4)cc1 [Compound 30]
- viability at 24 h, 5 µM [1]: 98%
- Y-maze activity in acute AD model (in words) [2]: did not show significant activity
